According to US20140357512A1, “HISTONE DEACETYLASE (HDAC) BIOMARKERS IN MULTIPLE MYELOMA” (priority 2013, published 2014):

Test system: human myeloma cell line MM.1S
Assay: SILAC acetylated-lysine peptide profiling, HDAC inhibitor vs DMSO (light/heavy ratio)
Assay type: cell-based
Description: An embodiment of the invention comprises utilizing the SILAC method in order to quantitate changes in protein expression between two or more populations of cells. The SILAC method is a technique based on mass spectrometry that detects differences in protein abundance among samples using non-radioactive isotopic labeling. The SILAC method is known in the art, and described in detail in Ong et al., “Stable Isotope Labeling by Amino Acids in Cell Culture, SILAC, as a Simple and Accurate Approach to Expression Proteomics”, Molecular & Cellular Proteomics, vol. 1, pp. 376-386 (2002), which is incorporated herein by reference in its entirety.
Briefly, the SILAC method involves growing two populations of cells in cell culture. The first population of cells is grown in growth media containing normal amino acids (“normal media”). The second population of cells is grown in media lacking a standard essential amino acid (such as lysine), but is then supplemented with a non-radioactive, isotopically labeled form of that essential amino acid (such as lysine labeled with ^13C atoms, rather than normal ^12C atoms), which is called “heavy media”. When the two populations of cells are each growing in the medium, they incorporate the amino acids into all of their proteins. The growth of cells maintained in the heavy media is no different from that in normal media. All peptides containing the heavy amino acids are heavier than their normal counterparts. The cells from each of the two populations of cells are lysed. The lysates from each of the two cell populations are then combined. The combined cell lysates are then analyzed by mass spectrometry. Pairs of chemically identical peptides of different stable isotope composition can be differentiated in a mass spectrometer due to their difference in mass. The ratio of peak intensities in the mass spectrum for such peptide pairs reflects the abundance ratio for the two proteins.
This example describes SILAC studies that were performed to compare the effects of three different HDAC inhibitors (Compound A, Compound B, and tubastatin A) to a control on a human multiple myeloma cell line. The HDAC inhibitors were also compared amongst themselves to determine differences in their effects.
A human myeloma cell line MM.1S was grown using either ^12C (light) or ^13C (heavy) lysine containing culture medium. The “heavy” cells were treated with DMSO as the control, and the “light” cells were treated with a single HDAC inhibitor at 37° C. for 6 hours. The heavy and light cells were lysed, and the lysates were mixed in 1:1 ratio and digested with the protease trypsin. The acetylated lysine containing peptides (due to the action of the HDAC inhibitor) in the digested peptide pool were captured by a non-specific anti-acetylated lysine antibody cocktail (the antibodies identify both light and heavy acetylated peptides), and subjected to mass spectrometry analysis in order to identify thousands of individual peptides.
Thousands of peptides were identified in pairs (^12C and ^13C) due to their known mass differences. The amino acid sequence and quantitative ratio (Light/Heavy) of a given peptide in two differentially treated cell lysates were then determined and annotated with their possible protein (gene) sources.
As stated above, three HDAC inhibitors (Compound A, Compound B, and Tubastatin A) were used. Thus, the SILAC method was performed three times, with a different HDAC inhibitor compared to a control each time. Accordingly, there are three pairs of quantitative data in the table below, i.e., Compound A:DMSO, Compound B:DMSO, and Tubastatin A:DMSO. A cut-off of 1.30 fold of change (increase or decrease) was then used to determine “changed” or “+” in the table, and any peptides with a fold of change less than 1.3 fold were determined to be “unchanged” or “0” in the table. Those peptides that were not identified were marked as “NA” in the table. […]

SMILES: O=C(CCCCCCNC(=O)c1cnc(N(c2ccccc2)c2ccccc2)nc1)NO [Compound A, 2-(diphenylamino)-N-(7-(hydroxyamino)-7-oxoheptyl)pyrimidine-5-carboxamide]
- L/H ratio of acetylated peptide […](ac)K (SEQ ID NO: 105) (SNORD21, RPL5 [220], log 2 scale, drug vs DMSO): 0.00
- L/H ratio of acetylated peptide […](ac)R (SEQ ID NO: 106) (SNORD43, RPL3 [115], log 2 scale, drug vs DMSO): 0.00
- L/H ratio of acetylated peptide […](ac)YGAIR (SEQ ID NO: 107) (SRSF1 [38], log 2 scale, drug vs DMSO): 0.00
- L/H ratio of acetylated peptide (ac)AEPSAPESK(ac)HK (SEQ ID NO: 108) (STT3B [10], log 2 scale, drug vs DMSO): 0.00
- L/H ratio of acetylated peptide (SYAEELAK(ac)HGMK (SEQ ID NO: 481), Estradiol 17-beta-dehydrogenase 12 [72], HSD17B12): 0.39 log 2
- light to heavy ratio (L/H ratio), log 2 scale, acetylated peptide […](ac)R (SEQ ID NO: 781) (Selenoprotein H [20], gene C11orf31, drug:DMSO): 1.00
- light to heavy ratio (L/H ratio) of acetylated peptide LQDFK(ac)SFLLK (SEQ ID NO: 582) (Serine hydroxymethyltransferase mitochondrial [469], gene SHMT2, inhibitor:DMSO): 0.43 log 2
- light to heavy ratio (L/H ratio) of acetylated peptide SFLLK(ac)DSETSQR (SEQ ID NO: 567) (Serine hydroxymethyltransferase mitochondrial [474], gene SHMT2, inhibitor:DMSO): 0.41 log 2
- light to heavy ratio (L/H ratio) of acetylated peptide VFEK(ac)YGR (SEQ ID NO: 568) (Serine/arginine-rich splicing factor 2 [36], gene SRSF2, inhibitor:DMSO): 0.41 log 2
- light to heavy ratio (L/H ratio) of acetylated peptide SGLLDK(ac)WK (SEQ ID NO: 602) (Signal peptidase complex subunit 2 [38], gene LOC653566, SPCS2, inhibitor:DMSO): 0.46 log 2
- light to heavy ratio (L/H ratio) of acetylated peptide (ac)[…](ac)DK (SEQ ID NO: 283) (Splicing factor U2AF 35 kDa subunit [13], U2AF1, drug:DMSO): 0.60 log 2
- light to heavy ratio (L/H ratio) of acetylated peptide YDDPEVQK(ac)DIK (SEQ ID NO: 578) (Stress-70 protein mitochondrial [135], gene HSPA9, inhibitor:DMSO): 0.43 log 2
- light to heavy ratio (L/H ratio) of acetylated peptide […](ac)SLAEHR (SEQ ID NO: 534) (Stress-induced-phosphoprotein 1 [325], gene STIP1, inhibitor:DMSO): −0.40 log 2
- light to heavy ratio (L/H ratio) of acetylated peptide, log 2 scale (TLQYK(ac)[…] (SEQ ID NO: 252), 40S ribosomal protein S16 [50], RPS16): −0.39
- L/H ratio of acetylated peptide […](ac)YVPR (SEQ ID NO: 109) (TUBB2C [58], log 2 scale, drug vs DMSO): 0.00
- L/H ratio of acetylated peptide ILAEGGGAK(ac)FK (SEQ ID NO: 110) (TUFM [91], log 2 scale, drug vs DMSO): 0.00
- L/H ratio of acetylated peptide QIESK(ac)[…] (SEQ ID NO: 111) (TXN [8], log 2 scale, drug vs DMSO): 0.00
- L/H ratio of acetylated peptide VYVAK(ac)[…] (SEQ ID NO: 113) (TXNDC5, MUTED, MUTED-TXNDC5 [118], log 2 scale, drug vs DMSO): 0.00
- L/H ratio of acetylated peptide […](ac)YQGPR (SEQ ID NO: 112) (TXNDC5, MUTED, MUTED-TXNDC5 [150], log 2 scale, drug vs DMSO): 0.00
- light to heavy ratio (L/H ratio), log 2 scale, acetylated peptide LLGITK(ac)ECVMR (SEQ ID NO: 815) (Talin-1 [334], gene TLN1, drug:DMSO): 1.00
- light to heavy ratio (L/H ratio) of acetylated peptide NICSK(ac)YSVR (SEQ ID NO: 256) (Thioredoxin domain-containing protein 5 [390], TXNDC5, MUTED, MUTED-TXNDC5, drug:DMSO): 0.39 log 2
- light to heavy ratio (L/H ratio), log 2 scale, acetylated peptide […](ac)YGK (SEQ ID NO: 817) (Transitional endoplasmic reticulum ATPase [109], gene VCP, drug:DMSO): 1.00
- light to heavy ratio (L/H ratio) of acetylated peptide AVDCLLDSK(ac)WAK (SEQ ID NO: 518) (Translocation protein SEC62 [60], gene SEC62, inhibitor:DMSO): −0.51 log 2
- light to heavy ratio (L/H ratio) of acetylated peptide NVK(ac)FVLK (SEQ ID NO: 609) (Translocon-associated protein subunit gamma [81], gene SSR3, inhibitor:DMSO): 0.47 log 2
- light to heavy ratio (L/H ratio) of acetylated peptide SEIINSK(ac)NFDR (SEQ ID NO: 525) (Transmembrane protein 43 [159], gene TMEM43, inhibitor:DMSO): −0.45 log 2
- light to heavy ratio (L/H ratio) of acetylated peptide VK(ac)[…] (SEQ ID NO: 562) (Tricarboxylate transport protein mitochondrial [149], gene SLC25A1, inhibitor:DMSO): 0.40 log 2
- light to heavy ratio (L/H ratio), log 2 scale, acetylated peptide ESK(ac)[…] (SEQ ID NO: 787) (Trifunctional enzyme subunit alpha mitochondrial [337], gene HADHA, drug:DMSO): 1.00
- light to heavy ratio (L/H ratio), log 2 scale, acetylated peptide FGAPQK(ac)DVK (SEQ ID NO: 788) (Trifunctional enzyme subunit alpha mitochondrial [359], gene HADHA, drug:DMSO): 1.00
- light to heavy ratio (L/H ratio), log 2 scale, acetylated peptide ILQEGVDPK(ac)K (SEQ ID NO: 789) (Trifunctional enzyme subunit alpha mitochondrial [569], gene HADHA, drug:DMSO): 1.00
- light to heavy ratio (L/H ratio) of acetylated peptide VPGK(ac)DTVTK (SEQ ID NO: 308) (Trifunctional enzyme subunit beta mitochondrial [272], HADHB, drug:DMSO): 1.00 log 2
- light to heavy ratio (L/H ratio), log 2 scale, acetylated peptide GK(ac)GK(ac)AGR (SEQ ID NO: 816) (Tubulin polymerization-promoting protein [187:189], gene TPPP, drug:DMSO): 1.00
- L/H ratio of acetylated peptide VVVTK(ac)YCDPDSYHR (SEQ ID NO: 114) (U2AF2 [462], log 2 scale, drug vs DMSO): 0.00
- light to heavy ratio (L/H ratio), log 2 scale, acetylated peptide QNIILK(ac)NDK (SEQ ID NO: 784) (Uncharacterized protein CXorf59 [13], gene CXorf59, drug:DMSO): 1.00
- L/H ratio of acetylated peptide (VAILK(ac)ANLR (SEQ ID NO: 488), Transitional endoplasmic reticulum ATPase [658], VCP): 0.80 log 2
- L/H ratio of acetylated peptide FGIAAK(ac)[…] (SEQ ID NO: 115) (VDAC1 [224], log 2 scale, drug vs DMSO): 0.00
- L/H ratio of acetylated peptide YK(ac)[…] (SEQ ID NO: 116) (VDAC2 [63], log 2 scale, drug vs DMSO): 0.00
